Measurements as given in PubChem BioAssay (NCI).
Values joined by “and” are separate entries in the source; they are usually repeats but may differ in a detail not shown here. Equal values may be shown once.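 Step 1: Grow cells in 96-well plates. Step 2: Expose to compound for 48 hours at 5 concentrations. Step 3: Interpolate endpoints linearly; if unreached, use highest concentration. GI50 marks 50% less growth. TGI: total growth inhibition.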

What follows are compounds tested on KM12 colon (assay: growth of human tumour cells (NCI), 48 h).

Row | Structure (SMILES) | GI50 [µM] | TGI [µM]
1 | CCCCCCCCCCCCCCCCCCOc1ccccc1CC(=O)OCC[N+]1(C)CCCC1 | 1.88 | 3.49
2 | CC(=O)C(=CN1CCN(C(=O)c2ccco2)C1=S)C(C)=O | 2.83 | 9.72

These compounds were tested on SR leukemia (assay: growth of human tumour cells (NCI), 48 h).

Row | Structure (SMILES) | GI50 | TGI [µM]
3 | O=S(=O)(Nc1cc(Sc2cccc3cccnc23)c(O)c2ccccc12)c1ccccc1 | 0.426 µM | 17.2
4 | CN(C)C(=O)[C@H](O)[C@H](Cc1ccccc1)NC(=O)c1cc2cc(Cl)ccc2[nH]1 | 26.6 µM | 88.7
5 | CC(C)(C[C@H]1CN(S(=O)(=O)c2cccc(C(F)(F)F)c2)c2cc(-c3cc(F)cc(OC(F)F)c3)ccc2O1)C(=O)O | 3.29 µM | 23.8
6 | Cc1ccc(-c2nc3ccc(Cl)cc3c(=O)n2N2C(=O)CSC2c2ccccc2Cl)cc1 (stereo not drawn) | > 100 µM | > 100
7 | O=C(O)C1C(Br)(c2ccccc2)C1(Br)c1ccccc1 (stereo not drawn) | – | > 100
8 | C#Cc1c(I)n(C2OC(CO[Si](C)(C)C(C)(C)C)C3OC(C)(C)OC32)c(=O)[nH]c1=O (stereo not drawn) | 2.62 µM | 12.8
9 | ClCC[N+]12CC[N+](CCCl)(CC1)C2 | – | > 100
10 | COc1cc(C(=O)c2cc(C)c3[nH]c4ccc(C)cc4c3c2C)cc(OC)c1OC | < 0.01 µM | > 100
11 | COc1cc(/C=C/c2cc(/C=C/c3ccc(O)c(OC)c3)n(C(=O)Nc3ccc(C)cc3C)n2)ccc1O | 0.0445 µM | –
12 | C=C1C(=O)OC2/C=C(\COC(C)=O)CCC(OC(C)=O)C3=CC(OC3=O)C12 (stereo not drawn) | – | 16.1
13 | Cc1ccc2[nH]c(O)c(N=Nc3ccc(S(N)(=O)=O)cc3)c2c1 | 7.23 µM | > 25
14 | C/C(N=NC(=S)N(C)C)=C1\C=CC=CN1O | – | > 100
15 | C=C1CCC(CC[C@@H]2CC[C@]3(OC2)O[C@@]2(O)CC[C@]3(C)OC2(C)C)C(C)(C)[C@H]1C/C=C1/C(=O)OC[C@@H]1O (stereo partly drawn) | – | > 100
16 | C[C@]12CC[C@@H]3c4cc(OCC(F)(F)F)c(O)cc4/C(=N/O)C[C@H]3[C@@H]1CC[C@@H]2O | 0.00319 µM and 0.0157 µM | –
17 | COc1cc(/C=C/c2ccc(OC)c(OC)c2)cc(OC)c1 | – | > 100
18 | CC1(C)[C@@H](OC(N)=O)[C@H]2O[C@H]2[C@]2(C=O)[C@H]3CC[C@]4(C)[C@@H](c5ccc(=O)oc5)[C@@H](Cl)C[C@]4(O)C3=CC[C@@H]12 | 0.00617 µM | 0.0185
19 | CCCCON(OC(=O)c1ccc2ccc3cccc4ccc1c2c34)C(C)=O | 13.2 µM | 35.1
20 | Clc1ccc(C=Nc2ccc3c(c2)Cc2ccccc2-3)c(Cl)c1 | – | > 100
21 | CN(C)CCN1C(=O)c2ccc3c4c(ccc(c24)C1=O)C(=O)N(CCN=C=S)C3=O | < 0.0172 µM | –
22 | COc1ccc(/C=C/c2cc(OC)cc(=O)o2)cc1 | – | > 100
23 | O=C(/C=C\c1ccc(NCc2ccc(C(=O)O)cc2)cc1)CCl | 3.33 µM | 10.9
24 | COc1cccc2c(=O)c3c(sc12)c(N1CCNCC1)nc1ccccc13 | 0.622 µM | > 100
25 | COc1cc2[nH]c(C(=O)c3cc(OC)c(OC)c(OC)c3)c(N)c2cc1C#CC1CC1 | 0.976 µM | > 100
26 | O=c1cc(NC2CCN(CCCc3ccccc3)CC2)c2cc(Cl)ccc2o1 | 6.81 µM | 28.3
27 | CC(=O)N[C@H]1CSSC[C@@H](C(N)=O)NC(=O)[C@H](C(C)C)NC(=O)[C@H](C)NC(=O)[C@H](Cc2cnc[nH]2)NC1=O | > 100 µM | > 100
28 | O=C1CC2c3ccccc3CCC2c2ccccc21 (stereo not drawn) | – | > 100
29 | O=C1Nc2ccc(F)cc2/C1=C/c1ccc[nH]1 | 7.84 µM | > 25
30 | CCCCCCCCCCCCCCCCCCOc1ccccc1CC(=O)OCC[N+]1(C)CCCC1 | 2.47 µM | 6.92
31 | CC(=O)C(=CN1CCN(C(=O)c2ccco2)C1=S)C(C)=O | 2.26 µM | > 100

What follows are compounds tested on OVCAR-4 ovarian (assay: growth of human tumour cells (NCI), 48 h).

Row | Structure (SMILES) | GI50 [µM] | TGI [µM]
32 | O=S(=O)(Nc1cc(Sc2cccc3cccnc23)c(O)c2ccccc12)c1ccccc1 | 0.474 | 1.75
33 | CN(C)C(=O)[C@H](O)[C@H](Cc1ccccc1)NC(=O)c1cc2cc(Cl)ccc2[nH]1 | 25.8 | > 100
34 | CC(C)(C[C@H]1CN(S(=O)(=O)c2cccc(C(F)(F)F)c2)c2cc(-c3cc(F)cc(OC(F)F)c3)ccc2O1)C(=O)O | 13.2 | 41.7
35 | Cc1ccc(-c2nc3ccc(Cl)cc3c(=O)n2N2C(=O)CSC2c2ccccc2Cl)cc1 (stereo not drawn) | 4.54 | > 100
36 | O=C(O)C1C(Br)(c2ccccc2)C1(Br)c1ccccc1 (stereo not drawn) | – | 64.1
37 | C#Cc1c(I)n(C2OC(CO[Si](C)(C)C(C)(C)C)C3OC(C)(C)OC32)c(=O)[nH]c1=O (stereo not drawn) | 17.8 | 37.6
38 | ClCC[N+]12CC[N+](CCCl)(CC1)C2 | – | > 100
39 | COc1cc(C(=O)c2cc(C)c3[nH]c4ccc(C)cc4c3c2C)cc(OC)c1OC | 0.0714 | > 100
40 | COc1cc(/C=C/c2cc(/C=C/c3ccc(O)c(OC)c3)n(C(=O)Nc3ccc(C)cc3C)n2)ccc1O | 0.464 | 2.99
41 | C=C1C(=O)OC2/C=C(\COC(C)=O)CCC(OC(C)=O)C3=CC(OC3=O)C12 (stereo not drawn) | – | 52
42 | Cc1ccc2[nH]c(O)c(N=Nc3ccc(S(N)(=O)=O)cc3)c2c1 | 6.62 | > 25
43 | C/C(N=NC(=S)N(C)C)=C1\C=CC=CN1O | – | > 100
44 | C=C1CCC(CC[C@@H]2CC[C@]3(OC2)O[C@@]2(O)CC[C@]3(C)OC2(C)C)C(C)(C)[C@H]1C/C=C1/C(=O)OC[C@@H]1O (stereo partly drawn) | – | 5.51
45 | C[C@]12CC[C@@H]3c4cc(OCC(F)(F)F)c(O)cc4/C(=N/O)C[C@H]3[C@@H]1CC[C@@H]2O | – | 39
46 | COc1cc(/C=C/c2ccc(OC)c(OC)c2)cc(OC)c1 | – | > 100
47 | CC1(C)[C@@H](OC(N)=O)[C@H]2O[C@H]2[C@]2(C=O)[C@H]3CC[C@]4(C)[C@@H](c5ccc(=O)oc5)[C@@H](Cl)C[C@]4(O)C3=CC[C@@H]12 | 0.00555 | 0.0139
48 | CCCCON(OC(=O)c1ccc2ccc3cccc4ccc1c2c34)C(C)=O | 23.5 | 59.9
49 | Clc1ccc(C=Nc2ccc3c(c2)Cc2ccccc2-3)c(Cl)c1 | – | > 100
50 | CN(C)CCN1C(=O)c2ccc3c4c(ccc(c24)C1=O)C(=O)N(CCN=C=S)C3=O | 0.13 | 0.365
51 | COc1ccc(/C=C/c2cc(OC)cc(=O)o2)cc1 | – | > 100
52 | O=C(/C=C\c1ccc(NCc2ccc(C(=O)O)cc2)cc1)CCl | 13.9 | 26.9
53 | COc1cccc2c(=O)c3c(sc12)c(N1CCNCC1)nc1ccccc13 | 1.8 | 3.62
54 | COc1cc2[nH]c(C(=O)c3cc(OC)c(OC)c(OC)c3)c(N)c2cc1C#CC1CC1 | 4.01 | > 100
55 | O=c1cc(NC2CCN(CCCc3ccccc3)CC2)c2cc(Cl)ccc2o1 | 13.2 | 35.6
56 | CC(=O)N[C@H]1CSSC[C@@H](C(N)=O)NC(=O)[C@H](C(C)C)NC(=O)[C@H](C)NC(=O)[C@H](Cc2cnc[nH]2)NC1=O | > 100 | > 100
57 | O=C1Nc2ccc(F)cc2/C1=C/c1ccc[nH]1 | 4.06 | > 25
58 | CCCCCCCCCCCCCCCCCCOc1ccccc1CC(=O)OCC[N+]1(C)CCCC1 | 2.94 | 12.1
59 | CC(=O)C(=CN1CCN(C(=O)c2ccco2)C1=S)C(C)=O | 10.6 | 32.7

The compounds below were run on EKVX NSCLC (assay: growth of human tumour cells (NCI), 48 h).

Row | Structure (SMILES) | GI50 [µM] | TGI [µM]
60 | O=S(=O)(Nc1cc(Sc2cccc3cccnc23)c(O)c2ccccc12)c1ccccc1 | 1.01 | 8.55
61 | CN(C)C(=O)[C@H](O)[C@H](Cc1ccccc1)NC(=O)c1cc2cc(Cl)ccc2[nH]1 | 25.7 | > 100
62 | CC(C)(C[C@H]1CN(S(=O)(=O)c2cccc(C(F)(F)F)c2)c2cc(-c3cc(F)cc(OC(F)F)c3)ccc2O1)C(=O)O | 5.25 | 19.3
63 | Cc1ccc(-c2nc3ccc(Cl)cc3c(=O)n2N2C(=O)CSC2c2ccccc2Cl)cc1 (stereo not drawn) | 4.15 | > 100
64 | O=C(O)C1C(Br)(c2ccccc2)C1(Br)c1ccccc1 (stereo not drawn) | – | > 100
65 | C#Cc1c(I)n(C2OC(CO[Si](C)(C)C(C)(C)C)C3OC(C)(C)OC32)c(=O)[nH]c1=O (stereo not drawn) | 20.6 | 52.3
66 | ClCC[N+]12CC[N+](CCCl)(CC1)C2 | – | > 100
67 | COc1cc(C(=O)c2cc(C)c3[nH]c4ccc(C)cc4c3c2C)cc(OC)c1OC | < 0.01 | > 100
68 | COc1cc(/C=C/c2cc(/C=C/c3ccc(O)c(OC)c3)n(C(=O)Nc3ccc(C)cc3C)n2)ccc1O | 0.995 | 5.76
